Test system: OSM-induced pSTAT3 in MDA-MB-231 human breast cancer cells
Test: pSTAT3 ELISA in MDA-MB-231 cells treated with OSM ± SMI
Format: cell-based
Conditions: SMI 10 μM, OSM 10 ng/mL, 30 min
Description: 2 High-throughput virtual screening identifies three novel compounds capable of interacting with site III of OSM. […] (F) Structure of parent SMI-10. Data are presented as mean ± SD relative to + OSM treatment, analyzed by one-way ANOVA with Tukey’s posttest *p < 0.05, **p < 0.01. To test the effect of SMIs in vitro, each SMI was incubated with OSM for a period of 1 h at 37 °C, and T47D and MDA-MB-231 human breast cancer cell lines were subsequently treated with OSM (10 ng/mL) and/or SMI-10 (10 μM) analogs for 30 min and measured for pSTAT3 levels via ELISA. The results of these assays are presented graphically in Figure and, for T47D cells, in Table as a percentage of reduction from +OSM alone. For phospho-STAT3 (pSTAT3) ELISAs, T47D MDA-MB-231, and MCF-7 cells were seeded in 12- or 24-well plates at 70–75% confluency and allowed to adhere overnight, after which cells were serum-starved with serum-free RPMI-1640 for 4 h. SMIs (10 μM in DMSO or serially diluted to specified concentrations from a 100 mM stock in DMSO) and human recombinant OSM (10 ng/mL; PeproTech; #300–10T-10UG) were incubated in serum-free RPMI-1640 medium for 1 h. After incubation, the SMI-10 analogs or SMI-10B13 and OSM were added to the serum-starved cells for 30 min. Immediately afterward, the cells were lysed using 1x PathScan Sandwich ELISA Lysis Buffer (Cell Signaling Technology; #7018S), collected, and stored at −20 °C. Lysates were analyzed for pSTAT3 levels using either the PathScan Phospho-STAT3 (Tyr705) Sandwich ELISA Antibody Pair kit (Cell Signaling Technology; #7146) or Human/Mouse Phospho-STAT3 (Y705) DuoSet IC ELISA (R&D Systems; DYC4607B), according to manufacture’s protocol. pSTAT3 expression was measured with absorbance at 450 nm and quantified by comparison relative to OSM-induced pSTAT3 levels. To calculate an IC50 for SMI-10B13, a standard curve was generated as described in the DuoSet IC ELISA datasheet to determine the concentration of pSTAT3.

O=[N+]([O-])c1c(/C=N/Nc2ccccc2)oc(-c2ccc3c(c2)OCO3)c1-c1ccc2c(c1)OCO2 [SMI-10]
Inhibition of OSM-induced pSTAT3 via ELISA: effective inhibitors of OSM

Reference: publication PMC12362618, “Development of the First Small-Molecule Inhibitor Targeting Oncostatin M for Treatment of Breast Cancer” (Journal of Medicinal Chemistry, 2025)
